How the values were obtained:
Format in all cases: in vivo
[1] = tested on: redroot pigweed (Amaranthus retroflexus, AMARE); assay: Pre-emerge test, greenhouse herbicide activity screening; conditions: pre-emerge, 14 days after application, scale 0-100
Outline: (§1)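 Visual ratings on a 0-100 scale (0 no damage, 100 all plants dead) were taken at 14 days after treatment. Rates of 15-1000 g ai/ha in acetone, 187 l/ha, were sprayed onto soil one day after planting (pre-emerge) or onto 2-3 leaf plants with 0.25% v/v surfactant (post-emerge).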

[2] = tested on: lambsquarters (Chenopodium album, CHEAL); assay: as above; conditions: pre-emerge, 14 days after application, scale 0-100
Outline: as §1

[3] = tested on: johnsongrass (Sorghum halepense, SORHA); assay: as above; conditions: pre-emerge, 14 days after application, scale 0-100
Outline: as §1

[4] = tested on: sicklepod (Cassia obtusifolia, CASOB); assay: as above; conditions: pre-emerge, 14 days after application, scale 0-100
Outline: as §1

[5] = tested on: large crabgrass (Digitaria sanguinalis, DIGSA); assay: as above; conditions: pre-emerge, 14 days after application, scale 0-100
Outline: as §1

[6] = tested on: green foxtail (Setaria viridis, SETVI); assay: as above; conditions: pre-emerge, 14 days after application, scale 0-100
Outline: as §1

[7] = tested on: barnyardgrass (Echinochloa crus-galli, ECHCG); assay: as above; conditions: pre-emerge, 14 days after application, scale 0-100
Outline: as §1

[8] = tested on: ivyleaf morningglory (Ipomoea hederacea, IPOHE); assay: as above; conditions: pre-emerge, 14 days after application, scale 0-100
Outline: as §1

[9] = tested on: velvetleaf (Abutilon theophrasti, ABUTH); assay: as above; conditions: pre-emerge, 14 days after application, scale 0-100
Outline: as §1

[10] = tested on: field corn (Zea mays L., var. Dekalb 535, CORN); assay: Post-emerge test, crop safety; conditions: post-emerge, 14 days after application, rating scale 0-100
Outline: as §1

[11] = tested on: upland rice (Oryza sp., var. Tebonnet, RICE); assay: Post-emerge test, crop safety; conditions: post-emerge, 14 days after application, rating scale 0-100
Outline: as §1

[12] = tested on: lambsquarters (Chenopodium album, CHEAL); assay: Post-emerge test, greenhouse herbicide activity screening; conditions: post-emerge, 14 days after application, rating scale 0-100
Outline: (§2)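 Compounds in acetone were track-sprayed at 15–1000 g ai/ha: pre-emergence onto soil sown the previous day, then top-watered to incorporate and later bottom-watered; post-emergence onto 2–3 leaf plants with 0.25% v/v surfactant, bottom-watered only. Ratings on a 0–100 phytotoxicity scale were taken at day 14.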

[13] = tested on: johnsongrass (Sorghum halepense, SORHA); assay: as above; conditions: post-emerge, 14 days after application, rating scale 0-100
Outline: as §2

[14] = tested on: sicklepod (Cassia obtusifolia, CASOB); assay: as above; conditions: post-emerge, 14 days after application, rating scale 0-100
Outline: as §2

[15] = tested on: large crabgrass (Digitaria sanguinalis, DIGSA); assay: as above; conditions: post-emerge, 14 days after application, rating scale 0-100
Outline: as §2

[16] = tested on: common ragweed (Ambrosia artemisizfolia L., AMBEL); assay: as above; conditions: post-emerge, 14 days after application, rating scale 0-100
Outline: as §2

[17] = tested on: green foxtail (Setaria viridis, SETVI); assay: as above; conditions: post-emerge, 14 days after application, rating scale 0-100
Outline: as §2

[18] = tested on: redroot pigweed (Amaranthus retroflexus, AMARE); assay: as above; conditions: post-emerge, 14 days after application, rating scale 0-100
Outline: as §2

[19] = tested on: barnyardgrass (Echinochloa crus-galli, ECHCG); assay: as above; conditions: post-emerge, 14 days after application, rating scale 0-100
Outline: as §2

[20] = tested on: ivyleaf morningglory (Ipomoea hederacea, IPOHE); assay: as above; conditions: post-emerge, 14 days after application, rating scale 0-100
Outline: as §2

[21] = tested on: velvetleaf (Abutilon theophrasti, ABUTH); assay: as above; conditions: post-emerge, 14 days after application, rating scale 0-100
Outline: as §2

[22] = tested on: field corn (Zea mays L., var. Dekalb 535, CORN); assay: Pre-emerge test, crop safety; conditions: pre-emerge, 14 days after application, scale 0-100
Outline: as §1

[23] = tested on: upland rice (Oryza sp., var. Tebonnet, RICE); assay: Pre-emerge test, crop safety; conditions: pre-emerge, 14 days after application, scale 0-100
Outline: as §1

## COc1c(Cl)cc(F)c(-n2c(=O)cc(C(F)(F)F)n(C)c2=O)c1NC(=O)c1ccc2c(Br)cccc2c1 [2-158]
[1]; 63 g ai/ha
  phytotoxicity rating AMARE: 100
[1]; 250 g ai/ha
  phytotoxicity rating AMARE: 100
[2]; 63 g ai/ha
  phytotoxicity rating CHEAL: 100
[2]; 250 g ai/ha
  phytotoxicity rating CHEAL: 100
[3]; 63 g ai/ha
  phytotoxicity rating SORHA: 0
[3]; 250 g ai/ha
  phytotoxicity rating SORHA: 20
[4]; 63 g ai/ha
  phytotoxicity rating CASOB: 0
[4]; 250 g ai/ha
  phytotoxicity rating CASOB: 0
[5]; 63 g ai/ha
  phytotoxicity rating DIGSA: 80
[5]; 250 g ai/ha
  phytotoxicity rating DIGSA: 95
[6]; 63 g ai/ha
  phytotoxicity rating SETVI: 0
[6]; 250 g ai/ha
  phytotoxicity rating SETVI: 95
[7]; 63 g ai/ha
  phytotoxicity rating ECHCG: 50
[7]; 250 g ai/ha
  phytotoxicity rating ECHCG: 80
[8]; 63 g ai/ha
  phytotoxicity rating IPOHE: 0
[8]; 250 g ai/ha
  phytotoxicity rating IPOHE: 0
[9]; 63 g ai/ha
  phytotoxicity rating ABUTH: 80
[9]; 250 g ai/ha
  phytotoxicity rating ABUTH: 95
[10]; 63 g ai/ha
  CORN phytotoxicity rating (crop damage): 0
[10]; 250 g ai/ha
  CORN phytotoxicity rating (crop damage): 0
[11]; 63 g ai/ha
  RICE phytotoxicity rating (crop damage): 20
[11]; 250 g ai/ha
  RICE phytotoxicity rating (crop damage): 60
[12]; 63 g ai/ha
  CHEAL phytotoxicity rating: 90
[12]; 250 g ai/ha
  CHEAL phytotoxicity rating: 95
[13]; 63 g ai/ha
  SORHA phytotoxicity rating: 0
[13]; 250 g ai/ha
  SORHA phytotoxicity rating: 0
[14]; 63 g ai/ha
  CASOB phytotoxicity rating: 90
[14]; 250 g ai/ha
  CASOB phytotoxicity rating: 100
[15]; 63 g ai/ha
  DIGSA phytotoxicity rating: 0
[15]; 250 g ai/ha
  DIGSA phytotoxicity rating: 30
[16]; 63 g ai/ha
  AMBEL phytotoxicity rating: 50
[16]; 250 g ai/ha
  AMBEL phytotoxicity rating: 100
[17]; 63 g ai/ha
  SETVI phytotoxicity rating: 10
[17]; 250 g ai/ha
  SETVI phytotoxicity rating: 70
[18]; 63 g ai/ha
  AMARE phytotoxicity rating: 100
[18]; 250 g ai/ha
  AMARE phytotoxicity rating: 100
[19]; 63 g ai/ha
  ECHCG phytotoxicity rating: 0
[19]; 250 g ai/ha
  ECHCG phytotoxicity rating: 50
[20]; 63 g ai/ha
  IPOHE phytotoxicity rating: 20
[20]; 250 g ai/ha
  IPOHE phytotoxicity rating: 80
[21]; 63 g ai/ha
  ABUTH phytotoxicity rating: 95
[21]; 250 g ai/ha
  ABUTH phytotoxicity rating: 100
[22]; 63 g ai/ha
  phytotoxicity rating CORN (crop damage): 0
[22]; 250 g ai/ha
  phytotoxicity rating CORN (crop damage): 0
[23]; 63 g ai/ha
  phytotoxicity rating RICE (crop damage): 0
[23]; 250 g ai/ha
  phytotoxicity rating RICE (crop damage): 10

From patent US6355799B1, “Substituted benzene compounds, process for their preparation, and herbicidal and defoliant compositions containing them” (ISK Americas Incorporated, priority 1997, dated 2002)
